{"source": "patent US11787816B2", "about": "“Chlorin compound, and preparation and use thereof” (Southwest Jiaotong University, priority 2021, dated 2023)", "key": {"[1]": {"tested_on": "human cervical cancer Hela cells", "test": "Photosensitizer-mediated PDT, in vitro proliferation (MTT), Hela", "type": "cell-based", "details": "for cell viability (%): Hela", "method": "(§1) Several kinds of tumor cells (human cervical cancer Hela cells, human hepatocellular carcinoma huh-7 cells and murine mammary carcinoma 4T1 cells) cultured in vitro from a variety of tissues were taken as cell models, so as to investigate the photodynamic effects mediated by different doses of CEFN, CEFO, Ce6 and HPPH on the three different tumor cells (n=3). The specific experimental procedures were carried out as follows.\n(§2) Cells in the logarithmic growth phase were harvested and seeded in a 24-well plate. After growing to a confluence of 70-80%, the cells were randomly divided into a control group (free of drug and light irradiation), a drug group and a photodynamic group. The CEFN, CEFO, Ce6 and HPPH were added respectively in dark, and for each drug, four final concentrations 1, 2, 5, and 10 μg/mL were set with 3 replicates for each group. After the co-incubation, the groups were treated individually. Regarding the photodynamic group, the light irradiation was performed at a wavelength of 660 nm and three different light intensities, i.e., 2, 4 and 8 J/cm^2. After that, each group was digested, and were inoculated into a 96-well plate at 100 μL per well with 4 replicates for each treatment. 24 hours later, the 96-well plate was subjected to MTT assay as follows. Each well was added with 20 μL of MTT (3-4,5-dimethylthiazol-2,5-diphenyltetrazolium bromide) solution in the dark and incubated for 4 hours. The supernatant was discarded, and the residue was dissolved with 150 μL of dimethyl sulfoxide for 15 min. After that, the 96-well plate was measured by a microplate reader for the absorbance (OD value). The relative cell viability was calculated as follows: relative cell viability=OD value of experimental group/OD value of control group*100%."}, "[2]": {"tested_on": "murine mammary carcinoma 4T1 cells", "test": "Photosensitizer-mediated PDT, in vitro proliferation (MTT), 4T1", "type": "cell-based", "method": "as §1, §2\nIn this experiment, photodynamic effect mediated by the compounds (except CEFO and CEFN) in different Examples of this disclosure on the murine mammary carcinoma 4T1 cells was investigated. The experimental procedures are carried out as follows. Cells in the logarithmic growth phase were harvested and seeded in a 24-well plate. After growing to a confluence of 70-80%, the cells were randomly divided into multiple photodynamic groups and multiple no-light control groups. The compounds (as shown in Table 8a) with a final concentration of 10 μg/mL were added to each group respectively in dark with 3 replicates for each group, so as to co-incubate the cells with the drug. Regarding the multiple photodynamic groups, the light irradiation was performed at a wavelength of 660 nm and the light intensity of 8 J/cm^2. After that, each group was digested, and were inoculated into a 96-well plate at 100 μL per well with 4 replicates for light treatment and no light treatment. 24 hours later, the 96-well plate was measured by MTT assay as follows. Each well was added with 20 μL of MTT (3-4,5-dimethylthiazol-2,5-diphenyltetrazolium bromide) solution in the dark and incubated for 4 hours. The supernatant was discarded, and the residue was dissolved with 150 μL of dimethyl sulfoxide for 15 min. After that, the 96-well plate was measured by a microplate reader for the absorbance (OD value). The relative cell viability of the murine mammary carcinoma 4T1 cells was calculated as follows according to the measured absorbance (OD value) in each group: relative cell viability=OD value of experimental group/OD value of control group*100%."}, "[3]": {"tested_on": "human hepatocellular carcinoma huh-7 cells", "test": "Photosensitizer-mediated PDT, in vitro proliferation (MTT), huh-7", "type": "cell-based", "method": "as §1, §2"}, "[4]": {"tested_on": "murine mammary carcinoma 4T1 cells", "test": "Antitumor activity as photosensitizers on tumor-bearing mice (two PDT treatments)", "type": "in vivo", "method": "The murine mammary carcinoma cells (4T1 line) were subjected to adherent culture. After growing to a confluence of 70%-80%, the cells in the culture flask were routinely digested, centrifuged and counted, and then resuspended with 0.85% normal saline to a density of 1×10^7 cells/mL. The cell suspension was injected into the left lateral middle axillary subcutaneous part of […] Bal b/c healthy mice (female, aged 6-8 weeks) at 0.1 mL/mouse. When the tumor diameter, which was observed every other day, reached 0.6-0.8 cm, the mice with well-growing tumors and no ulcers on the epidermis were selected for grouped treatment.\n(2) Mice with similar body weight and uniform tumor size are selected and randomly divided into 4 groups with 6 mice for each group. After inoculation of 4T1 cells and the tumor volume grows to 50˜80 mm^3, the mice were subjected to a first drug administration from the tail vein by group.\n6 h after the drug administration, the mice were fixed to expose the tumor growth site. As a first PDT treatment, light irradiation was performed for 8 min, using PDT-660 photodynamic therapy equipment at the laser wavelength of 660 nm and the light dose of 150 Joule/cm^2. One week later, the second PDT treatment (the dosage and lighting conditions were the same as those of the first PDT treatment) was performed. The mice were sacrificed 14 days after the treatment. The tumor was removed, weighed and recorded."}, "[5]": {"details": "0.25 mg/kg tail vein, two PDT treatments one week apart, 660 nm, 150 Joule/cm^2, 14 days after treatment"}, "[6]": {"details": "0.25 mg/kg, two PDT treatments, mice, in g (unit assumed)"}}, "data": [{"substance": "3-hexoxymethyl-3-devinyl-chlorin e4 disodium salt [CEFO]", "values": [{"measurement": "cell viability (%)", "setting": "[1]; 1 μg/mL, 660 nm, 2 J/cm^2", "result": "65 ± 3", "unit": "%"}, {"measurement": "cell viability (%)", "setting": "[1]; 1 μg/mL, 660 nm, 4 J/cm^2", "result": "61 ± 3", "unit": "%"}, {"measurement": "cell viability (%)", "setting": "[1]; 1 μg/mL, 660 nm, 8 J/cm^2", "result": "40 ± 2", "unit": "%"}, {"measurement": "cell viability (%)", "setting": "[1]; 1 μg/mL, no light", "result": "101 ± 2", "unit": "%"}, {"measurement": "cell viability (%)", "setting": "[1]; 2 μg/mL, 660 nm, 2 J/cm^2", "result": "54 ± 3", "unit": "%"}, {"measurement": "cell viability (%)", "setting": "[1]; 2 μg/mL, 660 nm, 4 J/cm^2", "result": "45 ± 2", "unit": "%"}, {"measurement": "cell viability (%)", "setting": "[1]; 2 μg/mL, 660 nm, 8 J/cm^2", "result": "25 ± 2", "unit": "%"}, {"measurement": "cell viability (%)", "setting": "[1]; 2 μg/mL, no light", "result": "107 ± 2", "unit": "%"}, {"measurement": "cell viability (%)", "setting": "[1]; 5 μg/mL, 660 nm, 2 J/cm^2", "result": "38 ± 2", "unit": "%"}, {"measurement": "cell viability (%)", "setting": "[1]; 5 μg/mL, 660 nm, 4 J/cm^2", "result": "24 ± 3", "unit": "%"}, {"measurement": "cell viability (%)", "setting": "[1]; 5 μg/mL, 660 nm, 8 J/cm^2", "result": "14 ± 4", "unit": "%"}, {"measurement": "cell viability (%)", "setting": "[1]; 5 μg/mL, no light", "result": "109 ± 2", "unit": "%"}, {"measurement": "cell viability (%)", "setting": "[1]; 10 μg/mL, 660 nm, 2 J/cm^2", "result": "25 ± 2", "unit": "%"}, {"measurement": "cell viability (%)", "setting": "[1]; 10 μg/mL, 660 nm, 4 J/cm^2", "result": "4 ± 1", "unit": "%"}, {"measurement": "cell viability (%)", "setting": "[1]; 10 μg/mL, 660 nm, 8 J/cm^2", "result": "3 ± 2", "unit": "%"}, {"measurement": "cell viability (%)", "setting": "[1]; 10 μg/mL, no light", "result": "107 ± 2", "unit": "%"}, {"measurement": "toxicity to the cells when the drug is used alone without photodynamic treatment", "setting": "[1]; summary statement for Hela, huh-7 and 4T1 cells, no light", "result": "will not lower the cell viability"}, {"measurement": "cell viability (%)", "setting": "[2]; 1 μg/mL, 660 nm, 2 J/cm^2", "result": "86 ± 3", "unit": "%"}, {"measurement": "cell viability (%)", "setting": "[2]; 1 μg/mL, 660 nm, 4 J/cm^2", "result": "84 ± 4", "unit": "%"}, {"measurement": "cell viability (%)", "setting": "[2]; 1 μg/mL, 660 nm, 8 J/cm^2", "result": "78 ± 3", "unit": "%"}, {"measurement": "cell viability (%)", "setting": "[2]; 1 μg/mL, no light", "result": "103 ± 2", "unit": "%"}, {"measurement": "cell viability (%)", "setting": "[2]; 2 μg/mL, 660 nm, 2 J/cm^2", "result": "67 ± 3", "unit": "%"}, {"measurement": "cell viability (%)", "setting": "[2]; 2 μg/mL, 660 nm, 4 J/cm^2", "result": "41 ± 3", "unit": "%"}, {"measurement": "cell viability (%)", "setting": "[2]; 2 μg/mL, 660 nm, 8 J/cm^2", "result": "39 ± 2", "unit": "%"}, {"measurement": "cell viability (%)", "setting": "[2]; 2 μg/mL, no light", "result": "103 ± 2", "unit": "%"}, {"measurement": "cell viability (%)", "setting": "[2]; 5 μg/mL, 660 nm, 2 J/cm^2", "result": "38 ± 2", "unit": "%"}, {"measurement": "cell viability (%)", "setting": "[2]; 5 μg/mL, 660 nm, 4 J/cm^2", "result": "21 ± 2", "unit": "%"}, {"measurement": "cell viability (%)", "setting": "[2]; 5 μg/mL, 660 nm, 8 J/cm^2", "result": "19 ± 42", "unit": "%"}, {"measurement": "cell viability (%)", "setting": "[2]; 5 μg/mL, no light", "result": "99 ± 2", "unit": "%"}, {"measurement": "cell viability (%)", "setting": "[2]; 10 μg/mL, 660 nm, 2 J/cm^2", "result": "29 ± 1", "unit": "%"}, {"measurement": "cell viability (%)", "setting": "[2]; 10 μg/mL, 660 nm, 4 J/cm^2", "result": "5 ± 1", "unit": "%"}, {"measurement": "cell viability (%)", "setting": "[2]; 10 μg/mL, 660 nm, 8 J/cm^2", "result": "3 ± 1", "unit": "%"}, {"measurement": "cell viability (%)", "setting": "[2]; 10 μg/mL, no light", "result": "100 ± 3", "unit": "%"}, {"measurement": "cell viability (%)", "setting": "[3]; 1 μg/mL, 660 nm, 2 J/cm^2", "result": "63 ± 3", "unit": "%"}, {"measurement": "cell viability (%)", "setting": "[3]; 1 μg/mL, 660 nm, 4 J/cm^2", "result": "60 ± 3", "unit": "%"}, {"measurement": "cell viability (%)", "setting": "[3]; 1 μg/mL, 660 nm, 8 J/cm^2", "result": "53 ± 3", "unit": "%"}, {"measurement": "cell viability (%)", "setting": "[3]; 1 μg/mL, no light", "result": "99 ± 2", "unit": "%"}, {"measurement": "cell viability (%)", "setting": "[3]; 2 μg/mL, 660 nm, 2 J/cm^2", "result": "58 ± 1", "unit": "%"}, {"measurement": "cell viability (%)", "setting": "[3]; 2 μg/mL, 660 nm, 4 J/cm^2", "result": "53 ± 3", "unit": "%"}, {"measurement": "cell viability (%)", "setting": "[3]; 2 μg/mL, 660 nm, 8 J/cm^2", "result": "30 ± 2", "unit": "%"}, {"measurement": "cell viability (%)", "setting": "[3]; 2 μg/mL, no light", "result": "99 ± 2", "unit": "%"}, {"measurement": "cell viability (%)", "setting": "[3]; 5 μg/mL, 660 nm, 2 J/cm^2", "result": "39 ± 2", "unit": "%"}, {"measurement": "cell viability (%)", "setting": "[3]; 5 μg/mL, 660 nm, 4 J/cm^2", "result": "24 ± 2", "unit": "%"}, {"measurement": "cell viability (%)", "setting": "[3]; 5 μg/mL, 660 nm, 8 J/cm^2", "result": "27 ± 1", "unit": "%"}, {"measurement": "cell viability (%)", "setting": "[3]; 5 μg/mL, no light", "result": "97 ± 3", "unit": "%"}, {"measurement": "cell viability (%)", "setting": "[3]; 10 μg/mL, 660 nm, 2 J/cm^2", "result": "25 ± 2", "unit": "%"}, {"measurement": "cell viability (%)", "setting": "[3]; 10 μg/mL, 660 nm, 4 J/cm^2", "result": "9 ± 1", "unit": "%"}, {"measurement": "cell viability (%)", "setting": "[3]; 10 μg/mL, 660 nm, 8 J/cm^2", "result": "7 ± 1", "unit": "%"}, {"measurement": "cell viability (%)", "setting": "[3]; 10 μg/mL, no light", "result": "93 ± 4", "unit": "%"}, {"measurement": "Inhibitory rate (average ± SD, %)", "setting": "[4]; [5]", "result": "96.9 ± 3.1", "unit": "%"}, {"measurement": "Tumor weight (average ± SD, g)", "setting": "[4]; [5]", "result": "0.029 ± 0.028", "unit": "g"}, {"measurement": "Body weight At the beginning", "setting": "[4]; [6]", "result": "20.2 ± 0.2"}, {"measurement": "Body weight At the end", "setting": "[4]; [6]", "result": "22.2 ± 0.5"}]}]}
